Active and inactive are the calls of the source. No cut-off for these calls is given here.
Legend:
[1] = molecular target: T1, MAP kinase-interacting serine/threonine-protein kinase 1 (Homo sapiens, UniProt Q9BUB5); assay: Inhibition of MKN1 (unknown origin) at 1 uM in presence of ATP by HTRF assay
[2] = molecular target: T1, MAP kinase-interacting serine/threonine-protein kinase 1; assay: Inhibition of wild type human full length MKN1 (M1 to L424) expressed in mammalian expression system at 1 uM by Kinomescan method relative to control
[3] = molecular target: T2, Serine/threonine-protein kinase pim-1 (Homo sapiens, UniProt P11309); assay: Inhibition of wild-type human partial length PIM1 (A15 to K313 residues) expressed in bacterial expression system at 1 uM by Kinomescan method relative to control
[4] = molecular target: T3, Serine/threonine-protein kinase pim-3 (Homo sapiens, UniProt Q86V86); assay: Inhibition of wild-type human partial length PIM3 (G16 to A317 residues) expressed in bacterial expression system at 1 uM by Kinomescan method relative to control
[5] = molecular target: T2, Serine/threonine-protein kinase pim-1; assay: Inhibition of full length recombinant human PIM1 using KKRNRTLTV as substrate incubated for 40 mins in presence of [gamma33P]ATP by scintillation counting based radiometry assay
[6] = molecular target: T3, Serine/threonine-protein kinase pim-3; assay: Inhibition of recombinant human Pim3 (2 to end residues) using RSRHSSYPAGT as substrate incubated for 40 mins in presence of [gamma33P]ATP by scintillation counting based radiometry assay
[7] = molecular target: Serine/threonine-protein kinase B-raf (Homo sapiens, UniProt P15056); assay: Inhibition of recombinant human B-Raf (416 to end residues) using myelin as substrate incubated for 40 mins in presence of [gamma-33P]-ATP by radiometric scintillation counting analysis
[8] = molecular target: Receptor tyrosine-protein kinase erbB-2 (Homo sapiens, UniProt P04626); assay: Inhibition of ERBB2 (unknown origin) by mobility shift assay
HL-60 = assay: Antiproliferative activity against human HL-60 cells assessed as reduction of cell viability incubated for 72 hrs by trypan blue staining based cell counting analysis; assay type: functional
K562 [9] = assay: Antiproliferative activity against human K562 cells assessed as reduction of cell viability incubated for 72 hrs by trypan blue staining based cell counting analysis; assay type: functional
[10] = molecular target: T4, MAP kinase-interacting serine/threonine-protein kinase 1/2 (Homo sapiens) (UniProt Q9HBH9+Q9BUB5); assay: Inhibition of MNK1/MNK2 in human MOLM-13 cells assessed as reduction in eIF4E phosphorylation at 1 to 2 uM incubated for 12 hrs by western blot analysis; assay type: cell-based; settings: dose 1-2 µM
MOLM-13 [11] = assay: Downregulation of c-myc levels in human MOLM-13 cells at 1 to 2 uM incubated for 12 hrs by western blot analysis; assay type: functional, cell-based; settings: dose 1-2 µM
[12] = molecular target: T4, MAP kinase-interacting serine/threonine-protein kinase 1/2 (Homo sapiens); assay: Inhibition of MNK1/MNK2 in human K562 cells assessed as reduction in eIF4E phosphorylation at 1 to 2 uM incubated for 24 hrs by western blot analysis; assay type: cell-based; settings: dose 1-2 µM
[13] = molecular target: Serine/threonine-protein kinase PIM (Homo sapiens) (UniProt P11309+Q9P1W9+Q86V86); assay: Inhibition of PIM in human K562 cells assessed as reduction in phosphorylated 4EBP1 at 1 to 2 uM incubated for 24 hrs by western blot analysis; assay type: cell-based; settings: dose 1-2 µM
K562 [14] = assay: Downregulation of c-myc levels in human K562 cells at 1 to 2 uM incubated for 24 hrs by western blot analysis; assay type: functional, cell-based; settings: dose 1-2 µM
K562 [15] = assay: Downregulation of mcl-1 levels in human K562 cells at 1 to 2 uM incubated for 24 hrs by western blot analysis; assay type: functional, cell-based; settings: dose 1-2 µM
MOLM-13 [16] = assay: Induction of cell cycle arrest in human MOLM-13 cells assessed as sub-G1 phase at 1 uM incubated for 12 hr by propidium iodide based flow cytometry analysis (Rvb= 4.78%); assay type: functional
MOLM-13 [17] = assay: Induction of cell cycle arrest in human MOLM-13 cells assessed as G1 phase at 2 uM incubated for 12 hr by propidium iodide based flow cytometry analysis (Rvb= 51.29%); assay type: functional
MOLM-13 [18] = assay: Induction of apoptosis in human MOLM-13 cells assessed as late apoptotic cells at 1 uM incubated for 12 hrs by annexin-V and propidium iodide staining based flow cytometry analysis (reference value: 3.03%); assay type: functional
MOLM-13 [19] = assay: Induction of apoptosis in human MOLM-13 cells assessed as late apoptotic cells at 2 uM incubated for 12 hrs by annexin-V and propidium iodide staining based flow cytometry analysis (reference value: 3.03%); assay type: functional
MOLM-13 [20] = assay: Induction of apoptosis in human MOLM-13 cells assessed as live cells at 1 uM incubated for 12 hrs by annexin-V and propidium iodide staining based flow cytometry analysis (reference value: 91.49%); assay type: functional
MOLM-13 [21] = assay: Induction of apoptosis in human MOLM-13 cells assessed as live cells at 2 uM incubated for 12 hrs by annexin-V and propidium iodide staining based flow cytometry analysis (reference value: 91.49%); assay type: functional
MOLM-13 [22] = assay: Induction of apoptosis in human MOLM-13 cells assessed as early apoptotic cells at 1 uM incubated for 12 hrs by annexin-V and propidium iodide staining based flow cytometry analysis (reference value: 5.40%); assay type: functional
[23] = Toxicity in NOD/SCID mouse xenografted with human MOLM-13 cells assessed as decrease in body weight at 5 to 10 mg/kg, ip daily for 2 weeks; assay type: organism-based; settings: in vivo, 336 h, dose 5-10 mg/kg
[24] = Toxicity in NOD/SCID mouse xenografted with human MOLM-13 cells assessed as abnormal changes in liver at 5 to 10 mg/kg, ip daily for 2 weeks by hematoxylin-eosin staining based histological analysis; assay type: organism-based; settings: in vivo, 336 h, dose 5-10 mg/kg
[25] = Toxicity in NOD/SCID mouse xenografted with human MOLM-13 cells assessed as abnormal changes in lung at 5 to 10 mg/kg, ip daily for 2 weeks by hematoxylin-eosin staining based histological analysis; assay type: organism-based; settings: in vivo, 336 h, dose 5-10 mg/kg
MOLM-13 [26] = assay: Antitumor activity against human MOLM-13 cells xenografted in NOD/SCID mouse assessed as decrease in cyclin-D1 levels at 10 mg/kg, ip daily for 2 weeks by western blot analysis; assay type: functional, organism-based
MOLM-13 [27] = assay: Antitumor activity against human MOLM-13 cells xenografted in NOD/SCID mouse assessed as decrease in 4EBP1 phosphorylation at 5 to 10 mg/kg, ip daily for 2 weeks by western blot analysis; assay type: functional, organism-based; settings: dose 5-10 mg/kg
[28] = Metabolic stability in rat liver microsomes assessed as half life preincubated for 10 mins followed by NADPH addition and further incubated upto 60 mins by LC-MS/MS analysis; assay type: ADME, Microsome; settings: time <=70 min
[29] = Cmax in Sprague Dawley rat at 10 mg/kg, ip measured after 24 hrs; assay type: ADME, organism-based; parameters: route intraperitoneal, time 24 hrs, dose 10 mg/kg; settings: in vivo
[30] = Tmax in Sprague Dawley rat at 2 mg/kg, iv measured after 24 hrs; assay type: ADME, organism-based; settings: in vivo
[31] = Tmax in Sprague Dawley rat at 10 mg/kg, ip measured after 24 hrs; assay type: ADME, organism-based; settings: in vivo
[32] = Half life in Sprague Dawley rat at 2 mg/kg, iv measured after 24 hrs; assay type: ADME, organism-based; settings: in vivo
[33] = Half life in Sprague Dawley rat at 10 mg/kg, ip measured after 24 hrs; assay type: ADME, organism-based; settings: in vivo
[34] = AUC (0 to t) in Sprague Dawley rat at 10 mg/kg, po measured after 24 hrs; assay type: ADME, organism-based; parameters: route oral, dose 10 mg/kg, time 24 hrs; settings: in vivo
[35] = AUC (0 to infinity) in Sprague Dawley rat at 2 mg/kg, iv measured after 24 hrs; assay type: ADME, organism-based; parameters: route intravenous, time 24 hrs, dose 2 mg/kg; settings: in vivo
[36] = Oral bioavailability in Sprague Dawley rat at 10 mg/kg measured after 24 hrs; assay type: ADME, organism-based; settings: in vivo

CC(C)Oc1cc(F)ccc1Nc1ncnc2ccc(-c3ccc(C(=O)N4CCNCC4)cc3)nc12
inhibition [1]: 97%
inhibition [2]: 100%
inhibition [3]: 96%
inhibition [4]: 90%
IC50 [5]: 0.043 µM
IC50 [6]: 0.774 µM
IC50 [7]: 2.22 µM
IC50 [8]: 7.49 µM
GI50 (HL-60): 1.5 µM
GI50 (K562 [9]): 2.19 µM
inhibition [10]: Active
Activity (MOLM-13 [11]): Active
inhibition [12]: Dose-Dependent Effect
inhibition [13]: Dose-Dependent Effect
Activity (K562 [14]): Active
Activity (K562 [15]): Active
Activity (MOLM-13 [16]): 11.81%
Activity (MOLM-13 [17]): 44.38%
Activity (MOLM-13 [18]): 2.97%
Activity (MOLM-13 [19]): 8.2%
Activity (MOLM-13 [20]): 90.09%
Activity (MOLM-13 [21]): 61.5%
Activity (MOLM-13 [22]): 6.83%
Activity [23]: Non-Toxic
Activity [24]: Non-Toxic
Activity [25]: Non-Toxic
Activity (MOLM-13 [26]): Active
Activity (MOLM-13 [27]): Active
half-life [28]: 36.1 min
Cmax [29]: 405 ng/mL
Tmax [30]: 4.98 min
Tmax [31]: 40.2 min
half-life [32]: 403 min
half-life [33]: 264 min
AUC(0-t) at 24 h [34]: 2850 ng·h/mL
AUC(0-inf) [35]: 1720 ng·h/mL
bioavailability [36]: 35.5%

Reference: ChEMBL document CHEMBL4825757, “Optimization of 4,6-Disubstituted Pyrido[3,2-d]pyrimidines as Dual MNK/PIM Inhibitors to Inhibit Leukemia Cell Growth” (J Med Chem, 2021)
